{"source": "patent EP1739169B1", "about": "“Clinical diagnostic reagent comprising glucose 6-phosphate dehydrogenase (G6PDH), method for stabilizing G6PDH, and use of a stabilizer for G6PDH” (SYSMEX CORPORATION, priority 2005, dated 2007)", "key": {"[1]": {"system": "G6PDH", "experiment": "Residual activity of G6PDH in CK activity measurement reagent after heat loading at 37°C (NADPH formation, absorbance at 340 nm)", "assay_type": "biochemical", "conditions": "heat loading at 37°C for 5 days; for G6PDH residual activity: relative to reagent without heat loading", "procedure": "(§1) Aminoguanidine was added to the above composition to prepare three kinds of reagents different in the concentration of aminoguanidine. The concentrations of aminoguanidine in these reagents were 10 mM, 20 mM and 40 mM respectively. After these reagents were subjected to heat loading at 37°C for 5 days, the residual activity of G6PDH was measured and the residual amount of SH group in NAC was quantified.\nThe activity of G6PDH was measured in the following manner. First, a solution wherein 20 mM magnesium chloride, 0.6 mM NADP and 0.5 mM G6P were dissolved in a solution containing 0.1 M glycylglycine (pH 8.5) was prepared. When 300 µl of this solution was mixed with 1 µl of the first reagent, NADPH is formed by the activity of G6DPH. When NADPH is formed, the absorbance at a wavelength of 340 nm is increased, and thus this increase is measured to determine the activity of G6PDH.\n(§2) In Table 1, the residual activity of G6PDH and the residual amount of SH group of NAC are expressed in percentage. These values are those relative to the activity of G6PDH and the amount of SH group of NAC in each reagent which without subjection to heat loading, was measured by the method described in Example 1. Table 1 […]"}, "[2]": {"experiment": "Residual amount of SH group of NAC in the reagent after heat loading at 37°C (quantification with DTNB, absorbance at 412 nm)", "assay_type": "physicochemical", "conditions": "heat loading at 37°C for 5 days; for SH group residual amount: relative to reagent without heat loading", "procedure": "as §1\nThe quantification of SH group was carried out by using DTNB (5,5'-dithiobis(2-nitrobenzoic acid)). When DTNB is added to the reagent where NAC is present, disulfide linkages corresponding to the amount of SH groups in the NAC are cleaved to generate 5-mercapto-2-nitrobenzoic acid. When 5-mercapto-2-nitrobenzoic acid is generated, the absorbance at a wavelength of 412 nm is increased, and thus this increase can be measured to determine the amount of SH groups in the reagent.\nas §2"}}}
{"smiles": "CC(=O)NN", "note": "[acetohydrazine, reference compound]", "values": [{"measurement": "activity of G6PDH after heat loading (in words)", "setting": "[1]", "result": "the activity of G6PDH was lost"}, {"measurement": "G6PDH residual activity", "setting": "[1]; stabilizer 20 mM in reagent", "result": 84.3, "unit": "%"}, {"measurement": "G6PDH residual activity", "setting": "[1]; stabilizer 40 mM in reagent", "result": 87.8, "unit": "%"}, {"measurement": "amount of SH group of NAC after heat loading (in words)", "setting": "[2]", "result": "NAC was deteriorated to reduce the amount of SH group"}, {"measurement": "SH group residual amount", "setting": "[2]; stabilizer 20 mM in reagent", "result": 78.4, "unit": "%"}, {"measurement": "SH group residual amount", "setting": "[2]; stabilizer 40 mM in reagent", "result": 77.7, "unit": "%"}]}
{"smiles": "N=C(N)NN", "note": "[aminoguanidine]", "values": [{"measurement": "activity of G6PDH after heat loading (in words)", "setting": "[1]", "result": "the activity of G6PDH could be maintained"}, {"measurement": "G6PDH residual activity", "setting": "[1]; stabilizer 10 mM in reagent", "result": 88.2, "unit": "%"}, {"measurement": "G6PDH residual activity", "setting": "[1]; stabilizer 20 mM in reagent", "result": 92.6, "unit": "%"}, {"measurement": "G6PDH residual activity", "setting": "[1]; stabilizer 40 mM in reagent", "result": 94.8, "unit": "%"}, {"measurement": "amount of SH group of NAC after heat loading (in words)", "setting": "[2]", "result": "without reducing the amount of SH group"}, {"measurement": "SH group residual amount", "setting": "[2]; stabilizer 10 mM in reagent", "result": 92.2, "unit": "%"}, {"measurement": "SH group residual amount", "setting": "[2]; stabilizer 20 mM in reagent", "result": 95.4, "unit": "%"}, {"measurement": "SH group residual amount", "setting": "[2]; stabilizer 40 mM in reagent", "result": 94.1, "unit": "%"}]}
